{"source": "patent US20260069581A1", "about": "“METHODS AND COMPOSITIONS FOR CANCER THERAPY” (OHIO STATE INNOVATION FOUNDATION, priority 2020, published 2026)", "key": {"[1]": {"conditions": "Phase I trial; cited from earlier work"}, "[2]": {"tested_on": "shRNA-stable Kasumi-1 and MOLM13 cells", "assay": "CFU serial replating assay of shRNA-stable cells with KPT-9274", "format": "cell-based, human", "excerpt": "FIGS. 2A-2M show show representative data for genetic depletion of HDAC8 or SIRT6 increases vulnerability of AML cell lines to KPT-9274 treatment. FIGS. 2A-2D show data for knockout efficiency of CDS- and 3′UTR-targeting shRNAs in MOLM13 and Kasumi-1 cells as assessed with Western blotting (FIGS. 2A, 2D) with GAPDH as a loading control. Densitometric quantification of protein band intensity is shown (n=2) in FIGS. 2B, 2E. FIGS. 2E-2H show representative data for depletion of HDAC8 or SIRT6 (as indicated in graphs) and sensitization of AML cell lines to KPT-9274 treatment. Dose-response curves of shRNA-stable MOLM13 and Kasumi-1 cells for 24-hour and 48-hour treatments are plotted. Cell viability was measured with MTS. […] Scrambled or gene-targeting shRNA-stable MOLM13 or Kasumi-1 cells were treated with IC20 dose of KPT-9274 for 48 hour and stained with Annexin/PI for flow cytometry analysis. Data are shown as mean±SEM of % population from duplicates. FIGS. 2K-2L show representative data that KPT-9274 attenuates AML self-renewal and induces myeloid differentiation in HDAC8 or SIRT6-depleted cells. Quantification of the number of colonies formed by shRNA-stable Kasumi-1 and MOLM13 cells in the presence or absence of KPT-9274 in CFU assays. Indicated number of cells were seeded into Methocult and colonies were counted and replated by a double-blind approach after 7 days. Results are shown as mean±SEM of duplicates. *p<0.05. **p<0.01. […] For each condition, images were randomly taken from 6-12 fields of view. Scale bar=50 μm.\nColony-forming unit (CFU) assays. Age-matched cryopreserved primary cells from bone marrow and apheresis of AML patients with various co-mutations and CD34^+ healthy bone marrow cells were acquired from Ohio State University Comprehensive Cancer Center Leukemia Tissue Bank. […] Formed colonies were counted blindly after 7-14 days and re-plated at 10,000 cells/well. The images of colonies were captured with Echo revolving microscope. The images of Giemsa staining of cytospin preparations were acquired by CX43 Olympus inverted microscope. […]"}, "[3]": {"tested_on": "Kasumi-1 cells", "assay": "MTS cell viability of shRNA-stable Kasumi-1 cells treated with KPT-9274", "format": "cell-based", "conditions": "Kasumi-1 scrambled control, 24 hour KPT-9274 treatment", "excerpt": "FIGS. 2A-2M show show representative data for genetic depletion of HDAC8 or SIRT6 increases vulnerability of AML cell lines to KPT-9274 treatment. FIGS. 2A-2D show data for knockout efficiency of CDS- and 3′UTR-targeting shRNAs in MOLM13 and Kasumi-1 cells as assessed with Western blotting (FIGS. 2A, 2D) with GAPDH as a loading control. Densitometric quantification of protein band intensity is shown (n=2) in FIGS. 2B, 2E. FIGS. 2E-2H show representative data for depletion of HDAC8 or SIRT6 (as indicated in graphs) and sensitization of AML cell lines to KPT-9274 treatment. Dose-response curves of shRNA-stable MOLM13 and Kasumi-1 cells for 24-hour and 48-hour treatments are plotted. Cell viability was measured with MTS. […] Scrambled or gene-targeting shRNA-stable MOLM13 or Kasumi-1 cells were treated with IC20 dose of KPT-9274 for 48 hour and stained with Annexin/PI for flow cytometry analysis. Data are shown as mean±SEM of % population from duplicates. […] Quantification of the number of colonies formed by shRNA-stable Kasumi-1 and MOLM13 cells in the presence or absence of KPT-9274 in CFU assays. Indicated number of cells were seeded into Methocult and colonies were counted and replated by a double-blind approach after 7 days. […]\nMTS assay. […] Plates were read by using a BioTek synergy H4 hybrid multimode microplate reader (Thermo Fisher Scientific) at 490 nM. […]"}, "[4]": {"assay": "In vivo MOLM13 xenograft study, toxicities and weight", "parameters": "species or system NCG mice", "conditions": "over the course of the study (FIG. 11B)", "excerpt": "FIG. 11A show H&E images of tissues obtained from MOLM13 xenograft mice that with the magnification and treatments as indicated in the figure. The images were representative of 3 different fields. […] FIG. 11B show weight change data of MOLM13 xenograft mice in response to different treatments.\nIn vivo MOLM13 xenograft study. All experiments were approved by the OSU Institutional Animal Care and Use Committee. Male NOD-Prkdc^em26cd52Il2rg^em26cd22/NjuCrl (NCG) mice (RRID:IMSR_CRL:572) (aged 6-8 weeks) were obtained from Charles River Laboratory. Mice were group-housed under conditions of constant photoperiod (12-hour light/12-hour dark), temperature, and humidity with adlibitum access to water and irradiated standard pelleted chow. […] luciferase-tagged MOLM13 cells were injected via tail vein into NCG mice. On day 5 post-engraftment, mice were randomized to receive placebo (vehicle; Karyopharm Therapeutics) once daily, 100 mg/kg of KPT-9274 (Karyopharm Therapeutics) once daily, 20 mg/kg AR-42 every another day and the combination of KPT-9274 and AR-42 via oral gavage. Overall survival was the primary end point for the majority of the mice. […] Mice were monitored by animal technicians who were blinded to the treatment groups and determined when mice met early removal criteria (20% weight loss, lethargy, hunching, and poor body condition). […]"}}}
{"smiles": "Nc1ccc(/C=C/C(=O)NCc2cc3cc(-c4ccc(C(=O)N5CCC(F)(F)CC5)cc4)cc(-c4ccc(F)cc4)c3o2)cn1", "note": "[KPT-9274, (E)-3-(6-aminopyridin-3-yl)-N-[[5-[4-(4,4-difluoropiperidine-1-carbonyl)phenyl]-7-(4-fluorophenyl)-1-benzofuran-2-yl]methyl]prop-2-enamide]", "values": [{"measurement": "drug-related adverse events", "setting": "[1]", "value": "anemia and fatigue"}, {"measurement": "tolerability vs 1st generation NAMPTi", "setting": "[1]", "value": "better tolerated"}, {"measurement": "colony formation and long-term self-renewal", "setting": "[2]; HDAC8 or SIRT6-depleted MOLM13 and Kasumi-1 cells", "value": "suppressed colony formation"}, {"measurement": "cell differentiation (Giemsa staining of cytospin preparations)", "setting": "[2]; KPT-9274 with depletion of HDAC8 or SIRT6, cells derived from CFU assays", "value": "cooperatively differentiated AML cells"}, {"measurement": "colony numbers vs vehicle control", "setting": "[2]; scramble groups, sublethal doses of KPT-9274", "value": "comparable"}, {"measurement": "IC50", "setting": "[3]", "value": "did not achieve IC50"}]}
{"smiles": "CC(C)[C@H](C(=O)Nc1ccc(C(=O)NO)cc1)c1ccccc1", "note": "[AR-42, (S)—N-Hydroxy-4-(3-methyl-2-phenylbutanamido)benzamide]", "values": [{"measurement": "weight loss", "setting": "[4]", "value": "did not observe any noticeable weight loss"}]}
